The text below walks through data of US8889677B2, “Substituted triazoles useful as mGlu5 receptor modulators” (Boehringer Ingellheim International GmbH, priority 2012, dated 2014).

Each structure is given as a SMILES string.

The target of the test is T1, human recombinant mGluR5 (Homo sapiens, UniProt P41594).
T1 construct: expressed in transfected cells; host or cells: HEK 293 cell line cultured with tetracycline, hygromycin and geneticin; tetracycline removed 3-7 days before the assay
T1 sequence (P41594 21-1212): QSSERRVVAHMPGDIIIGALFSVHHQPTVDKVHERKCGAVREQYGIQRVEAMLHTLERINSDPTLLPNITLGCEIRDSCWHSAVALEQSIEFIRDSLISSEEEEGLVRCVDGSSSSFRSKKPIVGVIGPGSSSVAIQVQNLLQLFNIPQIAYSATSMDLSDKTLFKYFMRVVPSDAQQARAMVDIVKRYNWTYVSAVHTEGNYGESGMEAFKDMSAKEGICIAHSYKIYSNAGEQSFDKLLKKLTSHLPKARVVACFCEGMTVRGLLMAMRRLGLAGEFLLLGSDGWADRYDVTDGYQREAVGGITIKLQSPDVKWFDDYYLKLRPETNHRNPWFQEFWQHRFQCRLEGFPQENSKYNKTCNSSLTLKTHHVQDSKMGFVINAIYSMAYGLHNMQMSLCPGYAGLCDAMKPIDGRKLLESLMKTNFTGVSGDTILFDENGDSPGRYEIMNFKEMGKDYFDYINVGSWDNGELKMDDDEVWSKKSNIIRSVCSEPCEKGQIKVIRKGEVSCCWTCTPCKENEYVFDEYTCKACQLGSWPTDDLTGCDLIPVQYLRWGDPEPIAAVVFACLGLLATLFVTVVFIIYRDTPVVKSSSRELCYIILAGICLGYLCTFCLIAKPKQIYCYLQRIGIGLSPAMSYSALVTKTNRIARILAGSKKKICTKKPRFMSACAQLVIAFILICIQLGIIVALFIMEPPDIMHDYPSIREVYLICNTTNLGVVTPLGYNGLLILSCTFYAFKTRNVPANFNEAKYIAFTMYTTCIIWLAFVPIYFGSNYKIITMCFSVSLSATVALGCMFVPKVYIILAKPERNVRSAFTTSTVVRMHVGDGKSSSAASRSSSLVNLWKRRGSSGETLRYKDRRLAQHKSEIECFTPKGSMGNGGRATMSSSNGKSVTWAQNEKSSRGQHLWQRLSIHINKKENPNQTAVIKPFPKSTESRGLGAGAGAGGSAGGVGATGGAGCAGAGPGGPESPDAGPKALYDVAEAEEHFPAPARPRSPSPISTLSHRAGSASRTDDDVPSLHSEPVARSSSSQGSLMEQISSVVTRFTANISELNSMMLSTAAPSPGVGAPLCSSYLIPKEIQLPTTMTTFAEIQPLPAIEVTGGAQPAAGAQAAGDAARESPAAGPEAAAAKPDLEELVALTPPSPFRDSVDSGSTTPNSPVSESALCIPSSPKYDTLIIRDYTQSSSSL
The test can be described thus: positive modulation of mGluR5, calcium based FLIPR assay in HEK 293 cells. To be noted: HEK 293 cell line expressing human recombinant mGluR5; EC50 of the modulation of the glutamate response (glutamate approx. 5% basal stimulation); peak height of Ca release fluorescence signal. Summed up: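 Potentiation EC50 derived by nonlinear fit of peak calcium fluorescence after a near-5%-maximal glutamate challenge, following 5 min compound exposure (intrinsic activity also recorded). Dye-loaded recombinant human mGluR5 HEK 293 cells in Ringer solution pH 7.4, 1% DMSO; plate controls were vehicle (100%) and 10 μM CDPPB (200%).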
What is called EC50 is the midpoint of the concentration-response curve. As to `O=C(Cn1nc(-c2ccc(F)cc2)nc1-c1ccc(F)cc1)N1CCN(c2cc(OCCn3ccnc3)ncn2)CC1` [Example 07.09.17.], the EC50 turned out to be 0.106 µM. With `O=C(Cn1nc(-c2ccc(F)cc2)nc1-c1ccc(F)cc1)N1CCN(c2cc(OCCN3CCNC3=O)ncn2)CC1` [Example 07.09.18.], the EC50 is 0.103 µM. For the compound `O=C(Cn1nc(-c2ccc(F)cc2)nc1-c1ccc(F)cc1)N1CCN(c2cc(OCCCN3CCOCC3)ncn2)CC1` [Example 07.09.19.], the EC50 is 0.2 µM. The value for `O=C(Cn1nc(-c2ccc(F)cc2)nc1-c1ccc(F)cc1)N1CCN(c2cc(OCCCO)ncn2)CC1` [Example 07.09.20.] was 0.065 µM. The value for `O=C(Cn1nc(-c2ccc(F)cc2)nc1-c1ccc(F)cc1)N1CCN(c2cc(OC3CCOCC3)ncn2)CC1` [Example 07.09.21.] was 0.079 µM. The value for `O=C(Cn1nc(-c2ccc(F)cc2)nc1-c1ccc(F)cc1)N1CCN(c2cc(OCc3cccnc3)ncn2)CC1` [Example 07.09.22.] was 0.039 µM; that for `O=C(Cn1nc(-c2ccc(F)cc2)nc1-c1ccc(F)cc1)N1CCN(c2cc(OC[C@@H]3CCCO3)ncn2)CC1` [Example 07.09.23.] was 0.062 µM; that for `O=C1CC(COc2cc(N3CCN(C(=O)Cn4nc(-c5ccc(F)cc5)nc4-c4ccc(F)cc4)CC3)ncn2)CN1` (stereo not shown) [Example 07.09.24.] was 0.101 µM. As to `CN(CCO)CCOc1cc(N2CCN(C(=O)Cn3nc(-c4ccc(F)cc4)nc3-c3ccc(F)cc3)CC2)ncn1` [Example 07.09.25.], the EC50 was 0.301 µM. Take `CN1CCN(CCCOc2cc(N3CCN(C(=O)Cn4nc(-c5ccc(F)cc5)nc4-c4ccc(F)cc4)CC3)ncn2)CC1` [Example 07.09.26.]: the 50% effective concentration (EC50) came out at 0.252 µM. The value for `O=C1CCCN1CCCOc1cc(N2CCN(C(=O)Cn3nc(-c4ccc(F)cc4)nc3-c3ccc(F)cc3)CC2)ncn1` [Example 07.09.27.] was 0.086 µM. In the case of `CN1CCN(CCOc2cc(N3CCN(C(=O)Cn4nc(-c5ccc(F)cc5)nc4-c4ccc(F)cc4)CC3)ncn2)CC1` [Example 07.09.28.], the EC50 amounted to 0.523 µM. As to `O=C(Cn1nc(-c2ccc(F)cc2)nc1-c1ccc(F)cc1)N1CCN(c2cc(OCC3CCOCC3)ncn2)CC1` [Example 07.09.29.], the EC50 was determined as 0.044 µM. The same measure for `COC[C@H](C)Oc1cc(N2CCN(C(=O)Cn3nc(-c4ccc(F)cc4)nc3-c3ccc(F)cc3)CC2)ncn1` [Example 07.09.30.]: 0.075 µM; for `Cc1cc(-c2nc(-c3ccccc3)n(CC(=O)N3CCN(c4ncccn4)CC3)n2)ccc1F` [Example 07.10.01., 2-(3-(4-fluoro-3-methyl-phenyl)-5-phenyl-(1,2,4)triazol-1-yl)-1-(4-pyrimidin-2-yl-piperazin-1-yl)-ethanone]: 0.011 µM. `COc1ccc(-c2nc(-c3ccccc3)n(CC(=O)N3CCN(c4ncccn4)CC3)n2)cc1` [Example 07.10.02.]: the EC50 stood at 0.037 µM. The value for `CCc1cccc(-c2nc(-c3ccccc3)n(CC(=O)N3CCN(c4ncccn4)CC3)n2)c1` [Example 07.10.03.] was 0.015 µM.

With `CCOc1cccc(-c2nc(-c3ccccc3)n(CC(=O)N3CCN(c4ncccn4)CC3)n2)c1` [Example 07.10.04.], the EC50 was determined as 0.043 µM.

As for `Cc1cccc(-c2nc(-c3ccccc3)n(CC(=O)N3CCN(c4ncccn4)CC3)n2)c1` [Example 07.10.05.], the EC50 came out at 0.017 µM. The value for `N#Cc1cccc(-c2nc(-c3ccccc3)n(CC(=O)N3CCN(c4ncccn4)CC3)n2)c1` [Example 07.10.06.] was 0.164 µM. The same measure for `O=C(Cn1nc(-c2cccc(F)c2)nc1-c1ccccc1)N1CCN(c2ncccn2)CC1` [Example 07.10.07.]: 0.189 µM. The value for `COCc1cccc(-c2nc(-c3ccccc3)n(CC(=O)N3CCN(c4ncccn4)CC3)n2)c1` [Example 07.10.08.] was 0.181 µM. With `COc1cc(OC)cc(-c2nc(-c3ccccc3)n(CC(=O)N3CCN(c4ncccn4)CC3)n2)c1` [Example 07.10.09.], the EC50 came out at 0.553 µM. The value for `COc1cccc(-c2nc(-c3ccccc3)n(CC(=O)N3CCN(c4ncccn4)CC3)n2)c1` [Example 07.10.10.] was 0.05 µM. The value for `Cc1ccc(-c2nc(-c3ccccc3)n(CC(=O)N3CCN(c4ncccn4)CC3)n2)cc1` [Example 07.10.12.] was 0.023 µM. The value for `CCOc1ccc(-c2nc(-c3ccccc3)n(CC(=O)N3CCN(c4ncccn4)CC3)n2)cc1` [Example 07.10.13.] was 0.077 µM. Regarding `O=C(Cn1nc(-c2ccc(F)cc2)nc1-c1ccccc1)N1CCN(c2ncccn2)CC1` [Example 07.10.14.], the EC50 came out at 0.033 µM.

`Cc1ccc(-c2nc(-c3ccccc3)n(CC(=O)N3CCN(c4ncccn4)CC3)n2)cc1C` [Example 07.10.15.]: the EC50 is 0.024 µM. The value for `Cc1cc(C)cc(-c2nc(-c3ccccc3)n(CC(=O)N3CCN(c4ncccn4)CC3)n2)c1` [Example 07.10.16.] was 0.031 µM; that for `COc1ccc(-c2nc(-c3ccccc3)n(CC(=O)N3CCN(c4ncccn4)CC3)n2)cc1C` [Example 07.10.17.] was 0.043 µM. The same measure for `CC(C)Oc1ccc(-c2nc(-c3ccccc3)n(CC(=O)N3CCN(c4ncccn4)CC3)n2)cc1` [Example 07.10.18.]: 1.05 µM. The same measure for `Cc1cccc(-c2nc(-c3ccccc3)nn2CC(=O)N2CCN(c3ncccn3)CC2)c1` [Example 07.10.19.]: 0.233 µM. For `CC(C)c1ccc(-c2nc(-c3ccccc3)nn2CC(=O)N2CCN(c3ncccn3)CC2)cc1` [Example 07.10.20.], the EC50 was 0.035 µM. The same measure for `N#CCc1ccc(-c2nc(-c3ccccc3)nn2CC(=O)N2CCN(c3ncccn3)CC2)cc1` [Example 07.10.21.]: 1.5 µM. The value for `Cc1ccc(-c2nc(-c3ccccc3)nn2CC(=O)N2CCN(c3ncccn3)CC2)cc1` [Example 07.10.22.] was 0.087 µM. `O=C(Cn1nc(-c2ccccc2)nc1C1=CCCC1)N1CCN(c2ncccn2)CC1` [Example 07.10.23.]: the EC50 was determined as 0.459 µM.

`COCc1ccc(-c2nc(-c3ccccc3)nn2CC(=O)N2CCN(c3ncccn3)CC2)cc1` [Example 07.10.24.]: the EC50 is 0.3 µM.

With `N#Cc1ccc(-c2nc(-c3ccccc3)nn2CC(=O)N2CCN(c3ncccn3)CC2)cc1` [Example 07.10.25.], the concentration for a half-maximal effect (EC50) worked out at 0.639 µM. The same measure for `O=C(Cn1nc(-c2ccccc2)nc1C1=CCCCC1)N1CCN(c2ncccn2)CC1` [Example 07.10.26.]: 0.543 µM. With `C=C(C)c1nc(-c2ccccc2)nn1CC(=O)N1CCN(c2ncccn2)CC1` [Example 07.10.27.], the EC50 is 1.47 µM. In the case of `O=C(Cn1nc(-c2ccccc2)nc1-c1ccc(CN2CCOCC2)cc1)N1CCN(c2ncccn2)CC1` [Example 07.10.28.], the EC50 came out at 0.804 µM.

Turning to `COc1cc(N2CCN(C(=O)Cn3nc(-c4ccc(C5CC5)cc4)nc3-c3ccccc3)CC2)ncn1` [Example 07.10.29.], the EC50 was 0.219 µM. The same measure for `COc1cc(N2CCN(C(=O)Cn3nc(-c4ccc(C)c(C)c4)nc3-c3ccccc3)CC2)ncn1` [Example 07.10.30.]: 0.05 µM. In the case of `COc1cc(N2CCN(C(=O)Cn3nc(-c4ccc(F)c(C(F)(F)F)c4)nc3-c3ccccc3)CC2)ncn1` [Example 07.10.31.], the 50% effective concentration (EC50) came out at 0.27 µM. The value for `COc1cc(N2CCN(C(=O)Cn3nc(-c4ccc(F)cc4)nc3-c3ccccc3)CC2)ncn1` [Example 07.10.32.] was 0.225 µM; that for `COc1cc(N2CCN(C(=O)Cn3nc(-c4ccc(F)c(F)c4)nc3-c3ccccc3)CC2)ncn1` [Example 07.10.33.] was 0.359 µM; that for `COc1cc(N2CCN(C(=O)Cn3nc(-c4cccc(C(C)C)c4)nc3-c3ccccc3)CC2)ncn1` [Example 07.10.34.] was 0.157 µM. The same measure for `COc1cc(N2CCN(C(=O)Cn3nc(-c4cccc(C)c4)nc3-c3ccccc3)CC2)ncn1` [Example 07.10.35.]: 0.098 µM. `COc1cc(N2CCN(C(=O)Cn3nc(-c4cc(C)cc(C)c4)nc3-c3ccccc3)CC2)ncn1` [Example 07.10.36.]: the EC50 was found to be 0.121 µM. The same measure for `COc1cc(N2CCN(C(=O)Cn3nc(-c4ccc(F)c(Cl)c4)nc3-c3ccccc3)CC2)ncn1` [Example 07.10.37.]: 0.101 µM; for `COc1cc(N2CCN(C(=O)Cn3nc(-c4cc(F)c(F)c(F)c4)nc3-c3ccccc3)CC2)ncn1` [Example 07.10.39.]: 0.389 µM.

In the case of `O=C(Cn1nc(-c2ccc(F)cc2)nc1-c1ccccc1)N1CCN(c2ccccn2)CC1` [Example 07.10.40.], the EC50 is 0.128 µM. As for `COc1ccc(-c2nc(-c3ccc(F)cc3)nn2CC(=O)N2CCN(c3ccccn3)CC2)cc1` [Example 07.10.41.], the EC50 came out at 0.182 µM. As to `O=C(Cn1nc(-c2ccc(F)cc2)nc1C#Cc1ccccc1)N1CCN(c2ccccn2)CC1` [Example 07.11.01., 2-(3-(4-fluoro-phenyl)-5-phenylethynyl-(1,2,4)triazol-1-yl)-1-(4-pyridin-2-yl-piperazin-1-yl)-ethanone], the EC50 came out at 0.098 µM.

With `O=C(Cn1nc(-c2ccc(F)cc2)nc1C#CC1CCCCC1)N1CCN(c2ccccn2)CC1` [Example 07.11.02.], the EC50 came out at 0.416 µM.
